Patent US12195427B2, “MASP-2 inhibitors and methods of use” (priority 2018, dated 2025)
Counter-ions that a name gives are not always drawn. Blank lines part the entries; values can stand above or below the molecule they belong to.

Key:
Lectin Pathway = Lectin Pathway Activation Assay in Human Serum (mannan-coated ELISA, C3c detection); assay type: biochemical; settings: 1% human serum
Protocol: Microtiter ELISA plate was coated with mannan from Saccharomyces cerevisiae (Sigma-Aldrich, M7504) for overnight at 4° C. in coating buffer [15 mM Na2CO3, 35 mM NaHCO3].

MASP-2 (CCP1-CCP2-SP) = MASP-2 (CCP1-CCP2-SP) (Homo sapiens (Human), UniProt O00187); assay: Enzymatic Assay for MASP-2 (fluorogenic substrate); assay type: biochemical
MASP-2 CCP2-SP = MASP-2 CCP2-SP (Homo sapiens (Human), UniProt O00187); assay: MASP-2 co-crystallization, X-ray crystallography and structure analysis (H-bonds, van der Waals contacts); parameters: van der Waals contact distance, MASP-2 HIS 483 atom CD2 / van der Waals contact distance, MASP-2 HIS 483 atom NE2 / van der Waals contact distance, SER 654 C to compound atom / van der Waals contact distance, SER 654 O to compound atom / van der Waals contact distance, TRP 655 C to compound atom / van der Waals contact distance, MASP-2 GLY 528 atom CA / van der Waals contact distance TRP 655 atom CZ3 / van der Waals contact distance TRP 655 atom N / van der Waals contact distance TRP 655 atom CE3 / van der Waals contact distance GLY 656 atom C / van der Waals contact distance GLY 656 atom CA / van der Waals contact distance GLY 656 atom O / van der Waals contact distance, MASP-2 TYR 607 atom CD1 / van der Waals contact distance, MASP-2 PRO 606 atom O / d(C3,CA1) / d(CA1,N1)2 / d(H4,O1) / d(H4,O2) / d(O1,O2) / d(CA1,O2) / d(CA6,O1) / d(CA6,O2) / d(CA1,C5) / d(O2,H3) / d(N2,C2) / d(CA5,N2) / d(N2,C4) / d(N2,C6) / d(N2,CA3) / d(N2,O3) / d(O4,H2): unit not given beside the values; settings: for H-bond distance to MASP-2 SER 657 atom O: SER 657 O; for van der Waals contact distance GLY 656 atom C: MASP-2 GLY 656 C; for van der Waals contact distance TRP 655 atom CE3: MASP-2 TRP 655 CE3, compound atom in line below; for van der Waals contact distance SER 657 atom C: MASP-2 SER 657 C, columns c12-c13 (inferred);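 as to Ligand-pharmacophore element distance, pharmacophore element C2: distance from averaged pharmacophore element to bound ligand; missing value means element absent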;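 as to Ligand-pharmacophore element distance, pharmacophore element C3: distance from averaged pharmacophore element to bound ligand; missing value means element absent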;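 as to Ligand-pharmacophore element distance, pharmacophore element C4: distance from averaged pharmacophore element to bound ligand; missing value means element absent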;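 as to Ligand-pharmacophore element distance, pharmacophore element C5: distance from averaged pharmacophore element to bound ligand; missing value means element absent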
How it was run: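 Inhibitor complexes were obtained by soaking crystals of E. coli-expressed human MASP-2 CCP2-SP constructs, then flash-cooling in liquid nitrogen. Structures solved by molecular replacement (1Q3X search model) from synchrotron diffraction; where several poses existed, only one was analyzed, and nonbonded contacts listed can include H-bonds.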

[1] = Table A5-1 pharmacophore: distance between elements, S2/S1 region
[2] = Table A7-1, between pharmacophore elements of the bound compound
[3] = Table A8-6, nearest protein atom in cell to the left

MASP-2 CCP2-SP, sequence (O00187 445-686): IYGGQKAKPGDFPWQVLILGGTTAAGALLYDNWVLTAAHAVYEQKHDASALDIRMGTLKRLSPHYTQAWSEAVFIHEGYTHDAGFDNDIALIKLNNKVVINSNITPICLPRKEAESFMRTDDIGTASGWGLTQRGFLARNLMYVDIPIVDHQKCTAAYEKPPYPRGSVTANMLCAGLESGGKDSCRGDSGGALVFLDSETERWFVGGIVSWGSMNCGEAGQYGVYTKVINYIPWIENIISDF
MASP-2 CCP2-SP, sequence (O00187 364-432 partner): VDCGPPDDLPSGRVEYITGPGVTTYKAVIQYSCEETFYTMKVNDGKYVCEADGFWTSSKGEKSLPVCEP
MASP-2 (CCP1-CCP2-SP), sequence (O00187 445-686): as the sequence (O00187 445-686) above

Structure (SMILES): C[C@H](NC(=O)[C@H]1C[C@H](Cc2ccc(-c3ccccc3)cc2)CN1)C(=O)NCc1cnc2[nH]cc(Cl)c2c1 [compound 1356, (2R,4S)-4-([1,1′-Biphenyl]-4-ylmethyl)-N—((S)-1-(((3-chloro-1H-pyrrolo[2,3-b]pyridin-5-yl)methyl)amino)-1-oxopropan-2-yl)pyrrolidine-2-carboxamide]
IC50 (Lectin Pathway): 50 to 500 nM

Structure (SMILES): Cc1cccc(CNC(=O)[C@H](C)NC(=O)[C@H]2C[C@H](Cc3ccccc3)CN2)c1-n1ncnn1 [compound 1437, (2R,4S)-4-Benzyl-N—((S)-1-((3-methyl-2-(2H-tetrazol-2-yl)benzyl)amino)-1-oxopropan-2-yl)pyrrolidine-2-carboxamide]
Ki (MASP-2 (CCP1-CCP2-SP)): 500 to 2500 nM

Structure (SMILES): N=C(N)c1ccc2[nH]c(Cc3ccccn3)nc2c1 [compound 2002, 2-(Pyridin-2-ylmethyl)-1H-benzo[d]imidazole-5-carboximidamide Dihydrochloride]
MASP-2 versus thrombin selectivity (MASP-2 (CCP1-CCP2-SP); +Zn): ++ (+Zn) (5.0 to 25-fold)

H-bond distance to MASP-2 GLN 665 atom OE1 (MASP-2 CCP2-SP; Table A1 (H-Bonds), GLN 665 OE1): 2.56
H-bond distance to MASP-2 GLY 656 atom N (MASP-2 CCP2-SP; Table A1 (H-Bonds), GLY 656 N): 3.26
H-bond distance to MASP-2 SER 628 atom O (MASP-2 CCP2-SP; Table A1 (H-Bonds), SER 628 O): 3.01
H-bond distance to MASP-2 SER 633 atom OG (MASP-2 CCP2-SP; Table A1 (H-Bonds), SER 633 OG): 3.08
H-bond distance to MASP-2 SER 654 atom O (MASP-2 CCP2-SP; Table A1 (H-Bonds), SER 654 O): 2.94
H-bond distance to MASP-2 SER 657 atom O (MASP-2 CCP2-SP; Table A1 (H-Bonds)): 2.84
van der Waals contact distance, MASP-2 HIS 483 atom CD2 (MASP-2 CCP2-SP; Table A2-1): 3.7
van der Waals contact distance, MASP-2 HIS 483 atom NE2 (MASP-2 CCP2-SP; Table A2-1): 3.87
van der Waals contact distance, MASP-2 PHE 529 atom CE2 (MASP-2 CCP2-SP; Table A2-3): 3.68
van der Waals contact distance, MASP-2 amino acid atom to compound atom (MASP-2 CCP2-SP; Table A2-7 continued: CYS 629 (CA)): 3.87
van der Waals contact distance, SER 654 C to compound atom (MASP-2 CCP2-SP; Table A2-11): 3.79
van der Waals contact distance GLY 656 atom C (MASP-2 CCP2-SP; Table A2-13): 3.64
van der Waals contact distance TRP 655 atom CE3 (MASP-2 CCP2-SP; Table A2-13): 3.76
van der Waals contact distance TRP 655 atom N (MASP-2 CCP2-SP; Table A2-13, MASP-2 TRP 655 N): 3.89
van der Waals contact distance GLY 656 atom O (MASP-2 CCP2-SP; Table A2-14, MASP-2 GLY 656 O): 3.3
van der Waals contact distance SER 657 atom C (MASP-2 CCP2-SP; Table A2-14): 3.7
Ligand-pharmacophore element distance, pharmacophore element C2 (MASP-2 CCP2-SP; Table A4-1, element C2): 0
Ligand-pharmacophore element distance, pharmacophore element C3 (MASP-2 CCP2-SP; Table A4-1, element C3): 9.61
Ligand-pharmacophore element distance, pharmacophore element C4 (MASP-2 CCP2-SP; Table A4-1, element C4): 0
Ligand-pharmacophore element distance, pharmacophore element C5 (MASP-2 CCP2-SP; Table A4-1, element C5): 0
Ligand-pharmacophore element distance, pharmacophore element C6 (MASP-2 CCP2-SP; Table A4-1, element C6): 0
Ligand-pharmacophore element distance, pharmacophore element C7 (MASP-2 CCP2-SP; Table A4-1, element C7): 0
Ligand-pharmacophore element distance, pharmacophore element CA1 (MASP-2 CCP2-SP; Table A4-1, element CA1): 0.54
Ligand-pharmacophore element distance, pharmacophore element CA2 (MASP-2 CCP2-SP; Table A4-1, element CA2): 0
Ligand-pharmacophore element distance, pharmacophore element CA3 (MASP-2 CCP2-SP; Table A4-1, element CA3): 0
Ligand-pharmacophore element distance, pharmacophore element CA4 (MASP-2 CCP2-SP; Table A4-1, element CA4): 0
Ligand-pharmacophore element distance, pharmacophore element CA5 (MASP-2 CCP2-SP; Table A4-1, element CA5): 1.25
Ligand-pharmacophore element distance, pharmacophore element CA6 (MASP-2 CCP2-SP; Table A4-1, element CA6): 1.35
d(CA1,N1) (MASP-2 CCP2-SP; [1]): 3.56
d(CA1,O1) (MASP-2 CCP2-SP; [1]): 7.59
d(CA1,O2) (MASP-2 CCP2-SP; [1]): 6.76
d(CA6,O1) (MASP-2 CCP2-SP; [1]): 2.73
d(CA6,O2) (MASP-2 CCP2-SP; [1]): 2.50
d(H4,O1) (MASP-2 CCP2-SP; [1]): 3.89
d(H4,O2) (MASP-2 CCP2-SP; [1]): 5.39
d(O1,O2) (MASP-2 CCP2-SP; [1]): 4.92
d(O2,H3) (MASP-2 CCP2-SP; Table A5-2 pharmacophore distance, S3/S4 region): 9.00
a(CA1, O1, O2) (MASP-2 CCP2-SP; Table A6-1 pharmacophore angle): 100.76
a(O1, CA6, O2) (MASP-2 CCP2-SP; Table A6-1 pharmacophore angle): 159.18
a(O1, O2, H4) (MASP-2 CCP2-SP; Table A6-1 pharmacophore angle): 118.45
A(N1, CA1, O1) a) (MASP-2 CCP2-SP; Table A6-1 pharmacophore angle, all compounds with protonatable center N1 except Methyl-amino-pyridine): 169.37
a(O1, O2, H3) (MASP-2 CCP2-SP; Table A6-2 pharmacophore angle): 154.86
Pharmacophore torsion angle a(CA6, O1, H4, O2) (MASP-2 CCP2-SP; [2]): −9.94
Pharmacophore torsion angle a(H4, O1, O2, H3) (MASP-2 CCP2-SP; [2]): 30.27
Pharmacophore torsion angle a(N1, CA1, O2, H4) (MASP-2 CCP2-SP; [2]): −154.72
Pharmacophore torsion angle a(O1, H4, O2, CA1) (MASP-2 CCP2-SP; [2]): −146.71
Pharmacophore protein distance to MET_658 (first MET_658 column) (MASP-2 CCP2-SP; Table A8-6, 6th residue column, nearest protein atom in cell to the left): 1.58
Pharmacophore protein distance to MET_658 (second MET_658 column) (MASP-2 CCP2-SP; Table A8-6, 9th residue column, nearest protein atom in cell to the left): 2.86
Pharmacophore protein distance to GLY_528 (MASP-2 CCP2-SP; [3]): 3.65
Pharmacophore protein distance to PHE_529 (MASP-2 CCP2-SP; [3]): 2.90
Pharmacophore protein distance to PRO_608 (MASP-2 CCP2-SP; [3]): 3.74
Pharmacophore protein distance to SER_611 (MASP-2 CCP2-SP; [3]): 2.86
Pharmacophore protein distance to TRP_655 (MASP-2 CCP2-SP; Table A8-6, pharmacophore elements C6, CA3, O3, H1, nearest protein atom in cell to the left): 3.77
Structure (SMILES): CNC(=O)c1ccc2c(=O)n(Cc3ccccc3)c(=O)n(CC(=O)NCc3ccc(C(=N)N)cc3)c2c1 [compound 2018, 3-Benzyl-1-(2-((4-carbamimidoylbenzyl)amino)-2-oxoethyl)-N-methyl-2,4-dioxo-1,2,3,4-tetrahydroquinazoline-7-carboxamide]

H-bond distance to MASP-2 SER 628 atom OG (MASP-2 CCP2-SP; Table A1 (H-Bonds), SER 628 OG): 2.75
H-bond distance to MASP-2 SER 657 atom O (MASP-2 CCP2-SP; Table A1 (H-Bonds)): 2.84
van der Waals contact distance, MASP-2 TYR 607 atom CD2 (MASP-2 CCP2-SP; Table A2-4): 3.72
van der Waals contact distance, MASP-2 amino acid atom to compound atom (MASP-2 CCP2-SP; Table A2-5: TYR 607 (CE1, CE2, OH), PRO 608 (CD, CG), SER 611 (CA)): 3.67
van der Waals contact distance, MASP-2 amino acid atom to compound atom (MASP-2 CCP2-SP; Table A2-9, ARG 630, AA atoms CG, CZ): 3.8
van der Waals contact distance GLY 656 atom C (MASP-2 CCP2-SP; Table A2-13): 3.42
van der Waals contact distance TRP 655 atom CE3 (MASP-2 CCP2-SP; Table A2-13): 3.75
van der Waals contact distance TRP 655 atom O (MASP-2 CCP2-SP; Table A2-13, MASP-2 TRP 655 O): 3.39
van der Waals contact distance SER 657 atom C (MASP-2 CCP2-SP; Table A2-14): 3.77
van der Waals contact distance SER 657 atom C (MASP-2 CCP2-SP; Table A2-14, listed as Melagatran): 3.68
Structure (SMILES): N=C(N)c1ccc(CNC(=O)[C@@H]2CCN2C(=O)[C@H](NCC(=O)O)C2CCCCC2)cc1 [melagatran, reference compound]
